From paper PMC6274539, “Photoactivatable Caged Prodrugs of VEGFR-2 Kinase Inhibitors” (Molecules, 2016)

Key:
Assay in all cases: kinase profiling, radioactive filter binding assay
Assay type in all cases: biochemical
AMPK = conditions: 0.1 µM compound, assay duplicates
Protocol: (§1) The used method was a radioactive filter binding assay using ^33P ATP, for details see references. The substances were dissolved in DMSO at tested concentration of 0.1 µM. The mean percentage residual kinase activity and standard deviations of assay duplicates were determined. Analyses were performed by the International Center for Kinase Profiling at the University of Dundee, UK.

BRSK2 = BRSK2 (Homo sapiens, UniProt Q8IWQ3); conditions: 0.1 µM compound, assay duplicates; read-out: residual activity of BRSK2, mean percentage activity
Protocol: as §1

CK1 = CK1 (Homo sapiens, UniProt P48730); conditions: 0.1 µM compound, assay duplicates; read-out: residual activity of CK1, mean percentage activity
Protocol: as §1

CK2 = CK2 (Homo sapiens, UniProt P68400); conditions: 0.1 µM compound, assay duplicates; read-out: residual activity of CK2, mean percentage activity
Protocol: as §1

CSK = CSK (Homo sapiens, UniProt P41240); conditions: 0.1 µM compound, assay duplicates; read-out: residual activity of CSK, mean percentage activity
Protocol: as §1

DYRK3 = DYRK3 (Homo sapiens, UniProt O43781); conditions: 0.1 µM compound, assay duplicates; read-out: residual activity of DYRK3, mean percentage activity
DYRK3, sequence (O43781 whole entry): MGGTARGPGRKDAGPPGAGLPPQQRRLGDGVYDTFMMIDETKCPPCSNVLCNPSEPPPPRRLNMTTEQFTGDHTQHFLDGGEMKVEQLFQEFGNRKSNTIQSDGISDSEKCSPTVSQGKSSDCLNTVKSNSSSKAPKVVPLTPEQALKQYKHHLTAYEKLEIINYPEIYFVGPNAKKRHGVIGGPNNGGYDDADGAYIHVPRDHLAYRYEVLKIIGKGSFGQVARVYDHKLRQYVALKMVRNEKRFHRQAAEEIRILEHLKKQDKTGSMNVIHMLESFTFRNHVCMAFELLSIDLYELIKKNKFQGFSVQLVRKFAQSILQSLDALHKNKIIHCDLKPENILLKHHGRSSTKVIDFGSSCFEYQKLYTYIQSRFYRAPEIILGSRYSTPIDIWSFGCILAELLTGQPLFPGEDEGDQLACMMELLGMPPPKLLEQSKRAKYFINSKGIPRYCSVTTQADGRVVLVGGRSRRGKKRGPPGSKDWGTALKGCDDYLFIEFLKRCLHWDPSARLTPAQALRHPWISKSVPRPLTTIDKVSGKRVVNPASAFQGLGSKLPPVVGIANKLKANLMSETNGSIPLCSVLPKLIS
Protocol: as §1

EPH A2 = EPH A2 (Homo sapiens, UniProt P29317); conditions: 0.1 µM compound, assay duplicates; read-out: residual activity of EPH A2, mean percentage activity
EPH A2, sequence (P29317 24-976): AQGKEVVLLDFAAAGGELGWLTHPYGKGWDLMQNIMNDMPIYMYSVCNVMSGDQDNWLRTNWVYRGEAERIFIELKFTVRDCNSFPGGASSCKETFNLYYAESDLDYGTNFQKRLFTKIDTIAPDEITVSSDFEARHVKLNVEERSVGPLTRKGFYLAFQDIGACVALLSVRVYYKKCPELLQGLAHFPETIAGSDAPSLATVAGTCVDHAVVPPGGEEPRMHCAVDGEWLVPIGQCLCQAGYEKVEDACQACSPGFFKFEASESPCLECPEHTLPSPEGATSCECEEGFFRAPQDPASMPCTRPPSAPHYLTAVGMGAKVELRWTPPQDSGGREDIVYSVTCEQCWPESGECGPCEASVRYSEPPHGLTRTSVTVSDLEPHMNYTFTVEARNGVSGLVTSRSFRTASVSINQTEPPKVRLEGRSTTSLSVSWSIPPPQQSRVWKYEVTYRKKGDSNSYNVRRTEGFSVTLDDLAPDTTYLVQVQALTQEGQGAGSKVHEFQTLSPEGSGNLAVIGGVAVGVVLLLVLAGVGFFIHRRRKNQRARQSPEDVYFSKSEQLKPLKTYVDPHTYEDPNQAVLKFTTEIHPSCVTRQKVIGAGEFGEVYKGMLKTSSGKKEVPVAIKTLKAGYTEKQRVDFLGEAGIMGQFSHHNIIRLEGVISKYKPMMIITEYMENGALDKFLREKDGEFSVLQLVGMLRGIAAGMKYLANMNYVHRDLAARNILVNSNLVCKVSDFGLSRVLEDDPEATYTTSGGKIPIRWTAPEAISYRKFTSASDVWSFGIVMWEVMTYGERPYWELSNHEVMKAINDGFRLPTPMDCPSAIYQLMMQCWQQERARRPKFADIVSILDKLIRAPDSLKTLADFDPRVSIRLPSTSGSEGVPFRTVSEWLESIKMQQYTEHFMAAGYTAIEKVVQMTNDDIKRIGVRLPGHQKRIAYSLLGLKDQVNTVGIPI
Protocol: as §1

EPH-B3 = EPH-B3 (Homo sapiens, UniProt P54753); conditions: 0.1 µM compound, assay duplicates; read-out: residual activity of EPH-B3, mean percentage activity
Protocol: as §1

ERK1 = ERK1 (Homo sapiens, UniProt P27361); conditions: 0.1 µM compound, assay duplicates; read-out: residual activity of ERK1, mean percentage activity
Protocol: as §1

GSK3b = GSK3b (Homo sapiens, UniProt P49841); conditions: 0.1 µM compound, assay duplicates; read-out: residual activity of GSK3b, mean percentage activity
GSK3b, sequence (P49841 whole entry): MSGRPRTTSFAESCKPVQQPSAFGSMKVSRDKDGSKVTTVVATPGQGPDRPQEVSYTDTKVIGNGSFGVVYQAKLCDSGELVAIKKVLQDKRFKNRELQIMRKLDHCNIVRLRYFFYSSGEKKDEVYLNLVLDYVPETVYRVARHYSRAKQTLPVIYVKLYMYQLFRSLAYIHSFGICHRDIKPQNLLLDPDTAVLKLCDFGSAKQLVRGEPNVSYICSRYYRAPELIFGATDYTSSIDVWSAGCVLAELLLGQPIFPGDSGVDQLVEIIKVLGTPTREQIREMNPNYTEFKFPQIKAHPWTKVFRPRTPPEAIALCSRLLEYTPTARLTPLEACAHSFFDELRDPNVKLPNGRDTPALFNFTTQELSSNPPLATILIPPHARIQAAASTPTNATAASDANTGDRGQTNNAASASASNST
Protocol: as §1

HIPK2 = HIPK2 (Homo sapiens, UniProt Q9H2X6); conditions: 0.1 µM compound, assay duplicates; read-out: residual activity of HIPK2, mean percentage activity
Protocol: as §1

IGF1-R = IGF1-R (Homo sapiens, UniProt P08069); conditions: 0.1 µM compound, assay duplicates; read-out: residual activity of IGF1-R, mean percentage activity
Protocol: as §1

IRR = IRR (Homo sapiens, UniProt P14616); conditions: 0.1 µM compound, assay duplicates; read-out: residual activity of IRR, mean percentage activity
Protocol: as §1

JNK2 = JNK2 (Homo sapiens, UniProt P45984); conditions: 0.1 µM compound, assay duplicates; read-out: residual activity of JNK2, mean percentage activity
Protocol: as §1

Lck = Lck (Homo sapiens, UniProt P06239); conditions: 0.1 µM compound, assay duplicates; read-out: residual activity of Lck, mean percentage activity
Protocol: as §1

MELK = MELK (Homo sapiens, UniProt Q14680); conditions: 0.1 µM compound, assay duplicates; read-out: residual activity of MELK, mean percentage activity
Protocol: as §1

NEK2a = NEK2a (Homo sapiens, UniProt P51955); conditions: 0.1 µM compound, assay duplicates; read-out: residual activity of NEK2a, mean percentage activity
Protocol: as §1

PAK4 = PAK4 (Homo sapiens, UniProt O96013); conditions: 0.1 µM compound, assay duplicates; read-out: residual activity of PAK4, mean percentage activity
Protocol: as §1

PAK6 = PAK6 (Homo sapiens, UniProt Q9NQU5); conditions: 0.1 µM compound, assay duplicates; read-out: residual activity of PAK6, mean percentage activity
PAK6, sequence (Q9NQU5 whole entry): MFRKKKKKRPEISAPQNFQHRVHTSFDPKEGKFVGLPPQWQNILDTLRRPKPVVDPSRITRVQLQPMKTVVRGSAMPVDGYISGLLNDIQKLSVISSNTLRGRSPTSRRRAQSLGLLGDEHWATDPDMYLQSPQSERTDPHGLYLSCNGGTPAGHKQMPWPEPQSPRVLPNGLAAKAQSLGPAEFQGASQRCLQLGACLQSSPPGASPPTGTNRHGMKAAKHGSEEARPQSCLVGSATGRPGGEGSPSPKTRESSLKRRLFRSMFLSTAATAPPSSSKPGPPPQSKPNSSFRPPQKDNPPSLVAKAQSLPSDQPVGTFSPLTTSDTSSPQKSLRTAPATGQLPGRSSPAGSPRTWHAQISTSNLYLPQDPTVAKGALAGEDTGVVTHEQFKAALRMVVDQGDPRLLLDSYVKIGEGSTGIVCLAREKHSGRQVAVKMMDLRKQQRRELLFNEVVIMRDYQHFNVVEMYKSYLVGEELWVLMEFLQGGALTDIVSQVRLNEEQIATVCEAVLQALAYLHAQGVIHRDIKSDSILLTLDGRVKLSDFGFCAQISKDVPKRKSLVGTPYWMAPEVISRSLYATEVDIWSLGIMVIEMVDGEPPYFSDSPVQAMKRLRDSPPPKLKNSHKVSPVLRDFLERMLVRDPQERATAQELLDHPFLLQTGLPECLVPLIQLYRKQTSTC
Protocol: as §1

PKBa = PKBa (Homo sapiens, UniProt P31749); conditions: 0.1 µM compound, assay duplicates; read-out: residual activity of PKBa, mean percentage activity
PKBa, sequence (P31749 whole entry): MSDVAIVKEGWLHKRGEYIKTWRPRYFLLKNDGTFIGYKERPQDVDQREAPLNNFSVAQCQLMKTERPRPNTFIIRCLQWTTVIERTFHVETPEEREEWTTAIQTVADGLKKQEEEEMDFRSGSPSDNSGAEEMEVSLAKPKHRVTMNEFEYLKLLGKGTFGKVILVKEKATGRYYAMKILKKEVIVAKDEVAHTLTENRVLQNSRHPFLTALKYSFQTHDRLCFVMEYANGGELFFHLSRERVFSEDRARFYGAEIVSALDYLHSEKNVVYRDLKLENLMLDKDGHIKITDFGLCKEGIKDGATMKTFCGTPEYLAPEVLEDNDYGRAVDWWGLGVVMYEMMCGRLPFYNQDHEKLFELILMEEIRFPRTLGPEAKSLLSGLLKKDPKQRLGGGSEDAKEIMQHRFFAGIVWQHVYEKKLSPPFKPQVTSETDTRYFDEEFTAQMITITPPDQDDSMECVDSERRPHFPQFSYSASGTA
Protocol: as §1

PKCa = PKCa (Homo sapiens, UniProt P17252); conditions: 0.1 µM compound, assay duplicates; read-out: residual activity of PKCa, mean percentage activity
Protocol: as §1

PLK1 = PLK1 (Homo sapiens, UniProt P53350); conditions: 0.1 µM compound, assay duplicates; read-out: residual activity of PLK1, mean percentage activity
Protocol: as §1

RSK2 = RSK2 (Homo sapiens, UniProt P51812); conditions: 0.1 µM compound, assay duplicates; read-out: residual activity of RSK2, mean percentage activity
Protocol: as §1

S6K1 = S6K1 (Homo sapiens, UniProt P23443); conditions: 0.1 µM compound, assay duplicates; read-out: residual activity of S6K1, mean percentage activity
Protocol: as §1

SRPK1 = SRPK1 (Homo sapiens, UniProt Q96SB4); conditions: 0.1 µM compound, assay duplicates; read-out: residual activity of SRPK1, mean percentage activity
SRPK1, sequence (Q96SB4 whole entry): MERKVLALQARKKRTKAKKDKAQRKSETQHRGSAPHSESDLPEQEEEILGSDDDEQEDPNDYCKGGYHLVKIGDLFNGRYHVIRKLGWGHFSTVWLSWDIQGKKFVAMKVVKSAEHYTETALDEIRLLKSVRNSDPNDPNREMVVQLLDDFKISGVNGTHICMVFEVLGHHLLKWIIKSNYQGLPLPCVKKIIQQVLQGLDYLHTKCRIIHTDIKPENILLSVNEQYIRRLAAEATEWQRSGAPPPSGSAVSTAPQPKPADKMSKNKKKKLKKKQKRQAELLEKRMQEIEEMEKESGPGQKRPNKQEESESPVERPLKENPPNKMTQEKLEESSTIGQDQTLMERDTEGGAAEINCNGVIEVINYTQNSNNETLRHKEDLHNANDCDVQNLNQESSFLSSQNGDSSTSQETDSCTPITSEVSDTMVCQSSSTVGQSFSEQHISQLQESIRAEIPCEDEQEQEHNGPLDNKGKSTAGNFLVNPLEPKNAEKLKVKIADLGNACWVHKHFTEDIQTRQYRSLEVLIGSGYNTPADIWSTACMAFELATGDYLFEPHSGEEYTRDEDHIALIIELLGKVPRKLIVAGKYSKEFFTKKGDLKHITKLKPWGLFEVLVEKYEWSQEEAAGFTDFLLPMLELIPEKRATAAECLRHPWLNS
Protocol: as §1

SYK = SYK (Homo sapiens, UniProt P43405); conditions: 0.1 µM compound, assay duplicates; read-out: residual activity of SYK, mean percentage activity
Protocol: as §1

TBK1 = TBK1 (Homo sapiens, UniProt Q9UHD2); conditions: 0.1 µM compound, assay duplicates; read-out: residual activity of TBK1, mean percentage activity
TBK1, sequence (Q9UHD2 whole entry): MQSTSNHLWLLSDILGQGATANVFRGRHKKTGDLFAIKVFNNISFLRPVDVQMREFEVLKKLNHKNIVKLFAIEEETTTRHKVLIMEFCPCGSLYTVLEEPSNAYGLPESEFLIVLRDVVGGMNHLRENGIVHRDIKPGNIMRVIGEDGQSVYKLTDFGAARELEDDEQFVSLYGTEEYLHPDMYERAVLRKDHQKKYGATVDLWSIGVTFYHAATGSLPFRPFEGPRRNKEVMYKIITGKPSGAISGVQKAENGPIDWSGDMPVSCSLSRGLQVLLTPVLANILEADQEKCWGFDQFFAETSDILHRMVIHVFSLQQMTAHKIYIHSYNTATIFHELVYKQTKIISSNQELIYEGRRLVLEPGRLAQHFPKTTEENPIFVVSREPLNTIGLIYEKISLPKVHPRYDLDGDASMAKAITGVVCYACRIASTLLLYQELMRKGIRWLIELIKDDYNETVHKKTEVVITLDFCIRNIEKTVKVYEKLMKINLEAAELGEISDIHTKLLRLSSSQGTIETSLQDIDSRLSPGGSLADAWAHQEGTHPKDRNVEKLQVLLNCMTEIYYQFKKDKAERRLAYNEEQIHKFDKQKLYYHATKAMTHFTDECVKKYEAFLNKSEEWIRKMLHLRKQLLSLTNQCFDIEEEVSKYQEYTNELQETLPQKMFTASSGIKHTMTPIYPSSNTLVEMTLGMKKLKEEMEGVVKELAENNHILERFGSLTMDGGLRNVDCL
Protocol: as §1

VEG-FR = conditions: 0.1 µM compound, assay duplicates
Protocol: as §1

p38a MAPK = p38a MAPK (Homo sapiens, UniProt Q16539); conditions: 0.1 µM compound, assay duplicates; read-out: residual activity of p38a MAPK, mean percentage activity
p38a MAPK, sequence (Q16539 whole entry): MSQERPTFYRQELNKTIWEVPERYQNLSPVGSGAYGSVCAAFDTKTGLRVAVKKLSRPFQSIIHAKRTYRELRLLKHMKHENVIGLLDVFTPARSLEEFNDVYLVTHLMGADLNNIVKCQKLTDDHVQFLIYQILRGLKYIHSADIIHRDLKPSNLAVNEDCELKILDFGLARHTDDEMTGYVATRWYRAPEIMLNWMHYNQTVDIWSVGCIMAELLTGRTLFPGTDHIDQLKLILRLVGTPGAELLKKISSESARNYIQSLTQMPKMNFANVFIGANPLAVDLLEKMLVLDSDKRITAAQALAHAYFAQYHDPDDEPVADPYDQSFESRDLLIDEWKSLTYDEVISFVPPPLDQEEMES
Protocol: as §1

| SMILES | residual activity of AMPK, mean percentage activity (AMPK) [%] | remaining activity at 0.1 µM (BRSK2) [%] | remaining activity at 0.1 µM (CK1) [%] | remaining activity at 0.1 µM (CK2) [%] | remaining activity at 0.1 µM (CSK) [%] | remaining activity at 0.1 µM (DYRK3) [%] | remaining activity at 0.1 µM (EPH A2) [%] | remaining activity at 0.1 µM (EPH-B3) [%] | remaining activity at 0.1 µM (ERK1) [%] | remaining activity at 0.1 µM (GSK3b) [%] | remaining activity at 0.1 µM (HIPK2) [%] | remaining activity at 0.1 µM (IGF1-R) [%] | remaining activity at 0.1 µM (IRR) [%] | remaining activity at 0.1 µM (JNK2) [%] | remaining activity at 0.1 µM (Lck) [%] | remaining activity at 0.1 µM (MELK) [%] | remaining activity at 0.1 µM (NEK2a) [%] | remaining activity at 0.1 µM (PAK4) [%] | remaining activity at 0.1 µM (PAK6) [%] | remaining activity at 0.1 µM (PKBa) [%] | other results |
| --- | --- | --- | --- | --- | --- | --- | --- | --- | --- | --- | --- | --- | --- | --- | --- | --- | --- | --- | --- | --- | --- |
| COc1cc(C2=C(c3c[nH]c4ccccc34)C(=O)NC2=O)cc(OC)c1OC [Compound 1, 3-(1H-Indol-3-yl)-4-(3,4,5-trimethoxyphenyl)-1H-pyrrole-2,5-dione] | 78 | 94 | 86 | 94 | 138 | 85 | 104 | 104 | 100 | 21 | 23 | 90 | 58 | 78 | 91 | 74 | 87 | 75 | 97 | 66 | remaining activity at 0.1 µM (PKCa): 113%; remaining activity at 0.1 µM (PLK1): 79%; remaining activity at 0.1 µM (RSK2): 91%; remaining activity at 0.1 µM (S6K1): 65%; remaining activity at 0.1 µM (SRPK1): 85%; remaining activity at 0.1 µM (SYK): 85%; remaining activity at 0.1 µM (TBK1): 87%; residual activity of VEG-FR, mean percentage activity (VEG-FR): 10%; remaining activity at 0.1 µM (p38a MAPK): 89% |
| COc1cc2c3c(c4c5ccccc5[nH]c4c2c(OC)c1OC)C(=O)NC3=O [Compound 3, 5,6,7-Trimethoxybenzo[a]pyrrolo[3,4-c]carbazole-1,3(2H,8H)-dione] | 75 | 66 | 78 | 91 | 99 | 46 | 109 | 133 | 91 | 5 | 7 | 65 | 41 | 93 | 91 | 55 | 91 | 55 | 99 | 81 | remaining activity at 0.1 µM (PKCa): 90%; remaining activity at 0.1 µM (PLK1): 49%; remaining activity at 0.1 µM (RSK2): 62%; remaining activity at 0.1 µM (S6K1): 28%; remaining activity at 0.1 µM (SRPK1): 83%; remaining activity at 0.1 µM (SYK): 86%; remaining activity at 0.1 µM (TBK1): 85%; residual activity of VEG-FR, mean percentage activity (VEG-FR): 37%; remaining activity at 0.1 µM (p38a MAPK): 78% |
